Data on 19 compounds can be found in patent US5952335A, “Fused polycyclic heterocycle derivatives” (Eisai Co., Ltd., priority 1995, dated 1999).

Molecules are shown by their SMILES. Where a name gives a salt, the structure may show the parent alone. Read-outs that look alike come from different tables or passages of the source.

For experiment [1], the system named is MX-1 (Human Mammary Cancer). Kind of experiment: in vivo Antitumor Test on MX-1 (Human Mammary Cancer) transplanted in nude mice. The following applies: Mus musculus, ip, 528 h, i.p., q7d × 3. As to the method:
MX-1 tumor pieces (about 1 mm^3) were subcutaneously transplanted into the side part of each nude mouse (BALB/C.nu/nu, 6 to 7 weeks, female). A compound of the present invention was dissolved in a 5% solution of glucose. When the tumor volume reached 50 mm^3 (on the about 10th day after the transplantation), the solution of the compound was intraperitoneally administered to the animals once a day in accordance with each schedule. On the other hand, a 5% solution of glucose was administered to the control group. The control group had 10 animals, while each test group had 5 animals. On the 22nd day after the transplantation, tumors were taken out and weighed. The tumor multiplication inhibitory ratio of each test group to the control group was determined in accordance with the following formula: [formula] wherein T means the average tumor weight of the test group; and C means the average tumor weight of the control group.

The test system of another experiment is P388 cells. The experiment is described as follows: in vitro Antitumor Test on P388 Cells (Mouse Leukemic Cells), MTT, 3 days. Type of experiment: cell-based. The following applies: 72 h, 3 days incubation. As to the method: P388 cells suspended in RPMI1640 medium (manufactured by Sanko Junyaku) containing 10% of fetal calf serum, (100 U/ml) of penicillin, 100 μg/ml of streptomycin, 5×10^-5 M of mercaptoethanol and 1 mM of sodium pyruvate were pipetted into a 96-well U-bottomed microplate at a ratio of 1.25×10^3 cells (0.1 ml) per well and incubated in a incubator containing 5% of carbon dioxide at 37° C. for a day. A compound of the present invention was dissolved in dimethyl sulfoxide to give a concentration of 10^-2 M and then diluted with the 10% fetal calf serum-containing RPMI1640 culture medium to give a concentration of 10^-4 or 10^-5 M. By taking this concentration as the maximal level, threefold serial dilution was effected with the use of the 10% fetal calf serum-containing RPMI1640 culture medium. Then these dilutions were added to the P388 incubation plate as described above at a ratio of 0.1 ml per well followed by incubation in an incubator containing 5% of carbon dioxide at 37° C. for 3 days. After the completion of the incubation, 0.05 ml/well of a 3.3 mg/ml solution of MTT [3-(4,5-dimethylthiazol-2-yl)-2,5-diphenyltetrazolium bromide] was added thereto and the incubation was continued for additional 2 hours. The microplate was centrifuged and the supernatant was aspirated off from each well. Then the formazan thus formed was dissolved in 0.1 ml of dimethyl sulfoxide and the absorbance thereof at 540 nm measured with a microplate reader was taken as an indication of the viable cell count. In accordance with the following formula, the inhibitory ratio was calculated and the 50% inhibitory concentration (IC50) of the test compound was determined: [formula] wherein T means the absorbance of a well containing the test compound; and C means the absorbance of a well containing no test compound.

For experiment [2], the system named is M5076 (Mouse Reticulum Cell Sarcoma). The experiment is described as follows: in vivo Antitumor Test on M5076 (Mouse Reticulum Cell Sarcoma) transplanted in BDF1 mice. Particulars: M5076, ip, 504 h, i.p.; for survival rate on day 21 at 50 mg/kg / inhibition in vivo at 50 mg/kg: 50 mg/kg/day. As to the method: M5076 cells (1×10^6 /animal) were subcutaneously transplanted into the side part of each BDF1 mouse (aged 6 to 7 weeks, female). A compound of the present invention was dissolved in a 5% solution of glucose. From the next day of the transplantation, the solution of the compound was intraperitoneally administered to the animals once a day in accordance with each schedule. On the other hand, a 5% solution of glucose was administered to the control group. The control group had 10 animals, while each test group had 5 animals.
On the 21st day after the transplantation, tumors were taken out and weighed. The tumor multiplication inhibitory ratio of each test group to the control group was determined in accordance with the following formula: [formula] wherein T means the average tumor weight of the test group; and C means the average tumor weight of the control group.

[3] abbreviates: d1,2,3,4 after transplantation, read-out: Survival rate on the judgement day (21th day).
The mark [4] stands for this setting: d1,2,3,4 after transplantation, tumor weight day 21, read-out: Proliferation inhibitory ratio (%).

As for `CN(C)CCn1c(=O)c2cccc3c4c5c(ccc4n(c1=O)c23)C(=O)CC5` [Example 7, 11,12-Dihydro-5-[2-(dimethylamino)ethyl]-4H,10H-ccylopenta[c]pyrimido[5,6,1-jk]carbazole-4,6,10(5H)-trione hydrochloride], the responders at 15 mg/kg in experiment [1] (15 mg/kg/day, read-out: Survival rate on the judgement day (22th day)) was found to be 100%. Further, the inhibition in vivo at 15 mg/kg in experiment [1] (15 mg/kg/day, tumor weight day 22, read-out: Proliferation inhibitory ratio (%)) was determined as 73.2%. Besides, in the experiment on P388 cells, inhibition was half-maximal at 31 nM (IC50).

`CNCCn1c(=O)c2cccc3c4c5c(ccc4n(c1=O)c23)C(=O)CCC5` [Example 10, 12,13-Dihydro-5-[2-(methylamino)ethyl]-4H-benzo[c]pyrimido[5,6,1-jk]carbazole-4,6,10(5H,11H)-trione hydrochloride]: the responders at 10 mg/kg in experiment [1] (10 mg/kg/day, read-out: Survival rate on the judgement day (22th day)) turned out to be 100%. In experiment [1] (10 mg/kg/day, tumor weight day 22, read-out: Proliferation inhibitory ratio (%)), the inhibition in vivo at 10 mg/kg amounted to 59.7%. In addition, in the experiment on P388 cells, the half-maximal inhibitory concentration (IC50) was 8.5 nM.

In turn, `O=c1c2cccc3c4c5ccccc5ccc4n(c(=O)n1CCN1CCCC1)c23` [Example 12, 5-[2-(1-Pyrrolidinyl)ethyl]-4H-benzo[c]pyrimido[5,6,1-jk]carbazole-4,6(5H)-dione hydrochloride] came in with a concentration for half-maximal inhibition (IC50) with P388 cells of 62 nM. Further, in experiment [2] (setting [3]), the survival rate on day 21 at 50 mg/kg was found to be 100%. The inhibition in vivo at 50 mg/kg in experiment [2] (setting [4]) was determined as 93.9%.

Regarding `CN(C)CCn1c(=O)c2cccc3c4c(n(c1=O)c32)Cc1ccccc1-4` [Example 20, 2-[2-(Dimethylamino)ethyl]-1H,11H-indeno[1',2':4,5]pyrrolo[3,2,1-ij]quinazoline-1,3(2H)-dione hydrochloride], the IC50 with P388 cells was 570 nM. For the same compound, the survival rate on day 21 at 12.5 mg/kg in experiment [2] (12.5 mg/kg/day, d1,2,3,4 after transplantation, read-out: Survival rate on the judgement day (21th day)) worked out at 100%. Moreover, the inhibition in vivo at 12.5 mg/kg in experiment [2] (12.5 mg/kg/day, d1,2,3,4 after transplantation, tumor weight day 21, read-out: Proliferation inhibitory ratio (%)) was determined as 70.8%.

`COc1ccc2ccc3c(c2c1)c1cccc2c(=O)n(CCN(C)C)c(=O)n3c21` [Example 26, 5-[2-(Dimethylamino)ethyl]-12-methoxy-4H-benzo[c]pyrimido [5,6,1-jk]carbazole-4,6(5H)-dione hydrochloride] showed a 50% inhibitory concentration (IC50) in the experiment on P388 cells of 230 nM. Also, in experiment [2] (setting [3]), the survival rate on day 21 at 50 mg/kg amounted to 100%. Further, in experiment [2] (setting [4]), the inhibition in vivo at 50 mg/kg amounted to 97.4%.

`CN(C)CCn1c(=O)c2cccc3c4c5cnccc5ccc4n(c1=O)c23` [Example 33, 9-[2-(Dimethylamino)ethyl]-8H-pyrido[4,3-c]pyrimido[5,6,1-jk]carbazole-8,10(9H)-dione dihydrochloride] came in with an IC50 in the experiment with P388 cells of 56 nM. Besides, the survival rate on day 21 at 50 mg/kg in experiment [2] (d9 after transplantation, read-out: Survival rate on the judgement day (21th day)) stood at 100%. Moreover, the inhibition in vivo at 50 mg/kg in experiment [2] (d9 after transplantation, tumor weight day 21, read-out: Proliferation inhibitory ratio (%)) came out at 74.9%.

The compound `CN(C)CCn1c(=O)c2cccc3c4c5ccc(C#N)cc5ccc4n(c1=O)c23` [Example 35, 11-Cyano-5-[2-(dimethylamino)ethyl]-4H-benzo[c]pyrimido [5,6,1-jk]carbazole-4,6(5H)-dione hydrochloride] returned an IC50 in the experiment with P388 cells of 63 nM. Moreover, the survival rate on day 21 at 25 mg/kg in experiment [2] (25 mg/kg/day, d9 after transplantation, read-out: Survival rate on the judgement day (21th day)) was 100%. Further, in experiment [2] (25 mg/kg/day, d9 after transplantation, tumor weight day 21, read-out: Proliferation inhibitory ratio (%)), the inhibition in vivo at 25 mg/kg came out at 78.7%.

`CN(C)CCn1c(=O)c2cc(N)cc3c4c5ccccc5ccc4n(c1=O)c23` [Example 47, 2-Amino-5-[2-(dimethylamino)ethyl]-4H-benzo[c]pyrimido [5,6,1-jk]carbazole-4,6(5H)-dione dihydrochloride] returned an IC50 with P388 cells of 250 nM.

In turn, `Cc1ccc(S(=O)(=O)Nc2ccc3c(ccc4c3c3cccc5c(=O)n(CCN(C)C)c(=O)n4c53)c2)cc1` [Example 48, 5-[2-(Dimethylamino)ethyl]-11-(4-methylbenzenesulfonamido)-4H-benzo[c]pyrimido[5,6,1-jk]carbazole-4,6(5H)-dione hydrochloride] had an IC50 with P388 cells of 350 nM.

`CN(C)CCn1c(=O)c2cccc3c4c5ccc(N)cc5ccc4n(c1=O)c23` [Example 49, 11-Amino-5-[2-(dimethylamino)ethyl]-4H-benzo[c]pyrimido [5,6,1-jk]carbazole-4,6(5H)-dione dihydrochloride]: the IC50 in the experiment on P388 cells came out at 30 nM.

In the experiment with P388 cells, `CC(=O)Nc1ccc2c(ccc3c2c2cccc4c(=O)n(CCN(C)C)c(=O)n3c42)c1` [Example 50, 11-Acetamido-5-[2-(dimethylamino)ethyl]-4H-benzo[c]pyrimido[5,6,1-jk]carbazole-4,6(5H)-dione hydrochloride] returned an IC50 of 7.1 nM.

In the experiment with P388 cells, `CN(C)CCN(C)CCn1c(=O)c2cccc3c4c5ccccc5ccc4n(c1=O)c23` [Example 51, 5-[2-[N-[2-(Dimethylamino)ethyl]-N-methylamino]ethyl]-4H-benzo[c]pyrimido[5,6,1-jk]carbazole-4,6(5H)-dione dihydrochloride] yielded an IC50 of 290 nM.

In the experiment on P388 cells, `CN(CCO)CCn1c(=O)c2cccc3c4c5ccccc5ccc4n(c1=O)c23` [Example 52, 5-[2-[N-(2-(Hydroxyethyl)-N-methylamino]ethyl]-4H-benzo[c]pyrimido[5,6,1-jk]carbazole-4,6(5H)-dione hydrochloride] returned a 50% inhibitory concentration (IC50) of 150 nM. Besides, the survival rate on day 21 at 50 mg/kg in experiment [2] (setting [3]) amounted to 100%. For the same compound, the inhibition in vivo at 50 mg/kg in experiment [2] (setting [4]) came out at 70.6%.

In the case of `CN(C)CCn1c(=O)c2cc(O)cc3c4c5ccccc5ccc4n(c1=O)c23` [Example 53, 5-[2-[Dimethylamino)ethyl]-2-hydroxy-4H-benzo[c]pyrimido [5,6,1-jk]carbazole-4,6(5H)-dione hydrochloride], the IC50 in the experiment with P388 cells was 300 nM.

The compound `COc1cccc2c1ccc1c3cccc4c(=O)n(CCN(C)C)c(=O)n(c43)c21` [Example 54, 2-[2-(Dimethylamino)ethyl]-9-methoxy-1H-benzo[a]pyrimido [5,6,1-jk]carbazole-1,3(2H)-dione hydrochloride] gave a 50% inhibitory concentration (IC50) in the experiment on P388 cells of 80 nM.

On to `O=c1c2cccc3c4c5cccnc5ccc4n(c(=O)n1CCN1CCCC1)c23` [Example 55, 9-[2-(1-Pyrrolidinyl)ethyl]-8H-pyrido[2,3-c]pyrimido[5,6,1-jk]carbazole-8,10(9H)-dione dihydrochloride], for which the half-maximal inhibitory concentration (IC50) with P388 cells was found to be 11 nM.

On to `CN(C)CCn1c(=O)c2ccc(F)c3c4c5cccnc5ccc4n(c1=O)c23` [Example 56, 9-[2-(Dimethylamino)ethyl]-13-fluoro-8H-pyrido[2,3-c]pyrimido[5,6,1-jk]carbazole-8,10(9H)-dione dihydrochloride], for which, in the experiment on P388 cells, the half-inhibitory concentration (IC50) came to 15 nM.

On to `Cc1ccc2c(ccc3c2c2cccc4c(=O)n(CCN(C)C)c(=O)n3c42)n1` [Example 57, 9-[2-(Dimethylamino)ethyl]-3-methyl-8H-pyrido[2,3-c]pyrimido[5,6,1-jk]carbazole-8,10(9H)-dione dihydrochloride], for which inhibition with P388 cells was half-maximal at 31 nM (IC50).

In turn, `CN(C)CCn1c(=O)c2nc3ccccc3c3c4ccc5ccccc5c4n(c1=O)c23` [Example 58, 7-[2-(Dimethylamino)ethyl]-6H-benzo[c,i]pyrimido[1,6,5-lm]-β-carboline-6,8(7H)-dione] registered a half-maximal inhibitory concentration (IC50) with P388 cells of 155 nM.
